Test results as given in article PMC5642494 (Oncotarget, 2017).

How the values were obtained:
ZR-75-1 xenograft tumors = assay: mRNA expression of cell cycle regulatory genes in ZR-75-1 xenograft tumors; format: in vivo, mouse; conditions: 50 or 75 mg/kg QDx5; Cyclin E, MCM7, CDKN2C, PTEN, AURA, CCNB1, FOXM1, RRM2, MKI67, Topo IIα
Protocol: page 4: or pHH3 facilitates quantification of the inhibition of #79654). The suspension was placed on the Qiashredder cell cycle progression since lower expression of these 2 columns (Qiagen #79654) and RNA was purified by biomarkers quantitatively correlates with the extent of following the protocol for the RNAeasy Mini Kit (Qiagen progression of cells through either S-phase (Topo IIα) or # 74104). Following the last wash, the purified RNA was M-phase (pHH3). The inhibition of CDK9 was assessed eluted using […] RNase-free water and collected in by measuring the inhibition of either MCL1 expression labeled DNase/RNase-free collection tubes. The quantity or phosphorylation of […] on the C-terminal domain of RNA was measured by spectral analysis using the repeat on RNA polymerase II (pCTD). The visualization Nanodrop Spectrophotometer (NanoDrop Products, of the signals corresponding to these biomarkers was Wilmington, DE, USA) and then placed in -80 degree […] achieved through development with the ECL SuperSignal freezer for analysis. The cDNA preparation was completed chemo-luminescence kit (Pierce) and image capture using as described in the included kit protocol using Superscript the Fuji LAS400 image capture instrument. […] Isolation and purification of RNA from tumors All samples, once quantitated, were delivered to […] […]

ZR-75-1 xenograft = ZR-75-1 xenograft efficacy in NOD SCID mice; format: in vivo, mouse
Protocol: Control animals were treated with vehicle (1% HEC/ 25 mM phosphate buffer, pH = 2) using the same schedule of dosing. The red bar just above the X-axis illustrates the duration of the treatment period. Tumor volume measurements were taken routinely during the course of the study and are plotted as mean +/- SEM versus days following tumor cell implantation. (B) Body weights were recorded routinely during the course of the study and are plotted as mean % change (+/– SEM) relative to the mean body weight recorded on the day just prior to the first day of dosing (baseline day = 27). (C) The waterfall plots indicate the relative tumor volumes for individual animals which were determined at the end of the dosing period (study day 55). […] Growth inhibition is observed in those instances where the calculated changes in %DT/C are less than 100% whereby greater inhibition results in smaller %DT/C values. Change in %DT/C values that are less than zero indicate regressions whereby the tumor volumes on day 55 are smaller than the baseline tumor volume measured on the day prior to the initiation of dosing (baseline day = day 27). […] The tumor volumes measured on day 27 served as the baseline volumes for the calculation of %DT/C. […] Potential CDK9 inhibition was assessed by measuring the expression of MCL1 or phosphorylation of serine 2 on the C-terminal domain repeat on RNA polymerase II (pCTD). […]

EFM-19 cells = assay: Ki-67 protein expression, EFM-19; format: cell-based; conditions: Homo sapiens, 2 DT, read-out: EC50 Ki-67 levels
Protocol: Relative IC50/EC50 values were determined by curve fitting to a four parameter logistic equation: Y = bottom + ((top-bottom)/ (1+exp(HillSlope*(X – LnIC50)), where X is the natural log of dose/concentration, Y is response, decreasing as X increases, top and bottom are plateaus in the same units as Y, lnIC50 is the natural log of potency, in the same log units as X, and HillSlope measures the steepness of the curve. Data were plotted using GraphPad Prism.
After 72 hours, cells were stained with an anti-FOXM1 antibody and a secondary goat anti-rabbit IgG, Alexa Fluor® 488 conjugate; nuclei were stained with propidium iodide (PI). Alternatively, for assessment of Ki-67 levels, cells were treated for 2 DT and then stained with Ki-67 and a secondary goat anti-rabbit IgG, Alexa Fluor® 488 conjugate. Plates were read in an Acumen Explorer Ex3 (TTP Labtech) using Cellista software and the percentages of FOXM1 positive and Ki-67 positive cells were calculated over the background signal. Data were normalized in Excel using the mean value obtained from treatment with 2 µM BEZ235 as the minimum and the mean value obtained from treatment with 0.2% DMSO as the maximum.

EC50 (EFM-19 cells): 16.7 nM
Structure (SMILES): CCN1CCN(Cc2ccc(Nc3ncc(F)c(-c4cc(F)c5nc(C)n(C(C)C)c5c4)n3)nc2)CC1 [abemaciclib, Abemaciclib]
mRNA expression of cell cycle genes in tumors (ZR-75-1 xenograft tumors): suppression of the expression of several genes
tumor volume (ZR-75-1 xenograft; 75 mg/kg PO QDx28, NOD SCID mice, ZR-75-1 xenograft): measured reduction in tumor volume (regression)
anti-tumor activity (ZR-75-1 xenograft; 50 or 75 mg/kg PO QDx28, single agent): Dose-dependent anti-tumor activity
